# pIC50: −log10 of the molar value. Read-outs that look alike come from different tables or passages of the source.
# Biological target: Rho-kinase (ROCK1) (Homo sapiens, UniProt Q13464)
# Assay: Rho-kinase (ROCK1) inhibition
# Assay type: biochemical
# Settings: for Inhibition / % Inhibition: concentration not given
# [1] = Table 3, first number of the cell
# [2] = Table 1, first number of the cell
# [3] = Table 2, first number of the cell
# [4] = read-out: IC50, inhibitory activity against Rho-kinase activity
# Chain of Rho-kinase (ROCK1) (Q13464 whole entry, species assumed): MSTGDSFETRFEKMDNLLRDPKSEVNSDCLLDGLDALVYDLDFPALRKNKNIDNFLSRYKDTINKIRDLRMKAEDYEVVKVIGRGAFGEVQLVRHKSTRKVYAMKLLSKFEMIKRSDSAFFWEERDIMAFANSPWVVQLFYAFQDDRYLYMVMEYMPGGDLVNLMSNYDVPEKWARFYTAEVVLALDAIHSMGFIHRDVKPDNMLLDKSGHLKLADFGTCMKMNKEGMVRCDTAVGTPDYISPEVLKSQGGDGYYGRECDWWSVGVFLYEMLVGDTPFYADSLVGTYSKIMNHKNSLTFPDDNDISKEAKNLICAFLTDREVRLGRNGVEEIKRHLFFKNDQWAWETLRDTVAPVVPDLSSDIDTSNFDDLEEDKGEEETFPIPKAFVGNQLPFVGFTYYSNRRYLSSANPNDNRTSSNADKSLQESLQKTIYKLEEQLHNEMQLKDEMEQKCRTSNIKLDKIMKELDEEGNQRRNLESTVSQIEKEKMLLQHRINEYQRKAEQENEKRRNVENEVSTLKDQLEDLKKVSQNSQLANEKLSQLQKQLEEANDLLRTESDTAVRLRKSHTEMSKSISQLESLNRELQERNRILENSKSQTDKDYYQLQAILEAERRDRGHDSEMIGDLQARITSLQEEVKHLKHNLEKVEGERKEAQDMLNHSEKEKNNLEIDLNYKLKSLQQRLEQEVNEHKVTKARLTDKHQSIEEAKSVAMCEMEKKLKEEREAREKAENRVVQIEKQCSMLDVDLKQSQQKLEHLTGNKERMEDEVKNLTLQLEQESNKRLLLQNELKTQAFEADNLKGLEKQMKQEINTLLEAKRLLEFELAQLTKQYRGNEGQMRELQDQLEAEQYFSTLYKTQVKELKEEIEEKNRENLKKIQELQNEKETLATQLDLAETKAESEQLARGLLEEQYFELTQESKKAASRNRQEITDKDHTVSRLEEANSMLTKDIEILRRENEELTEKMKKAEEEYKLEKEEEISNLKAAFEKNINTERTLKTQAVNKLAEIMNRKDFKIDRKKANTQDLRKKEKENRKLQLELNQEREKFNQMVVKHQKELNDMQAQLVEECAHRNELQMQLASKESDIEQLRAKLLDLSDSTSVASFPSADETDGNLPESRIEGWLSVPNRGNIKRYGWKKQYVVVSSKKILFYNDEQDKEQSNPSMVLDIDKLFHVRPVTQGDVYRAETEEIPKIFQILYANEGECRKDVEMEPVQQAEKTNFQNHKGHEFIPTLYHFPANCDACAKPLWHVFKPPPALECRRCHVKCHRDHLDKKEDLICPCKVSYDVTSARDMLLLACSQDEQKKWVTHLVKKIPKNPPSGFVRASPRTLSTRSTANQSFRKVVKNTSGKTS
structure (smiles),measurement,setting,value
O=C(Nc1ccncc1)N1CCCN(Cc2ccccc2)CC1 [Compound 9],Inhibition (@ 100 μM),Table 4,21.0 (@ 100 μM)
O=C(Nc1ccncc1)N1CCCNCC1 [Compound 10],Inhibition (@ 100 μM),Table 4,16.7 (@ 100 μM)
c1ccc(C[C@H]2CN(Cc3cccc4ncccc34)CCN2)cc1 [IP-IV-109 R = H2],pIC50,"Table 3, read-out: IC50",4.17
c1ccc(C[C@H]2CN(Cc3cccc4cnccc34)CCN2)cc1 [IP-IV-29],Inhibition,[1],16 IC50 = 16 μM
same,pIC50,"Table 3, read-out: IC50",4.80
CC(C)(C)OC(=O)N1CCN(c2cccc3cnccc23)C[C@@H]1COCc1ccccc1 [IP-IV-43],% Inhibition (@ 100 μM),Table 1,4.73%
same,% Inhibition,[2],49%
O=C(Nc1ccncc1)NC1CCNCC1 [Compound 15a],pIC50,"Table 4, read-out: IC50",4.26
CSCC[C@@H]1NC(=O)CN(Cc2ccccc2)C1=O [Compound 3b],% Inhibition,[3],78%
O=C(Nc1ccncc1)N1CCN[C@@H](Cc2ccccc2)C1 [Compound 12b],inhibitory activity / disruption of Rho-kinase activity (in words),,potent disrupters of active Rho-kinase
same,pIC50,[4],4.85
O=C(CN1CCCNCC1)Nc1ccncc1 [IP-IV-81],% Inhibition (@ 100 μM),Table 5,30.61 (@ 100 μM) %
CC(C)[C@H]1CN(Cc2cccc3cnccc23)CCN1 [IP-IV-107],Inhibition,[1],29
same,pIC50,"Table 3, read-out: IC50",4.66
O=C(c1cccc2ncccc12)N1CCNC(Cc2ccccc2)C1 (stereo not drawn) [IP-IV-109 R = O],Inhibition (@ 100 μM),Table 3,1.55 (@ 100 μM)
CCOC(=O)C1CCN(C(=O)Nc2ccncc2)CC1 [Compound 7],Inhibition (@ 100 μM),Table 4,6.29 (@ 100 μM)
CSCC[C@H]1CN(Cc2ccncc2)CCN1 [Compound 2b],% Inhibition (@ 100 μM),Table 2,4.35%
same,% Inhibition,[3],36%
CC(C)(C)OC(=O)N1CCN(C(=O)c2cccc3cnccc23)C[C@@H]1Cc1ccccc1 [IP-III-153],Inhibition,[1],91
CC(C)(C)OC(=O)N1CCN(c2ccnc3ccccc23)C[C@@H]1COCc1ccccc1 [IP-IV-35],% Inhibition,[2],54%
"c1ccc(C[C@H]2CN(Cc3cccc4ccccc34)CCN2)cc1 [Compound 6e, N-Naphtylmethyl-3-benzyl piperazine]",inhibitory activity / disruption of Rho-kinase activity (in words),,particular effectiveness
same,% Inhibition (@ 100 μM),Table 2,20.4%
same,% Inhibition,[3],75%
CSCC[C@H]1CN(Cc2cccc3ccccc23)CCN1 [Compound 6b],% Inhibition (@ 100 μM),Table 2,11.9%
same,% Inhibition,[3],62%
O=C1CN(Cc2ccncc2)C(=O)[C@H](Cc2ccccc2)N1 [Compound 1e],% Inhibition,[3],~20%
Cl.O=C(O)C1CCN(C(=O)Nc2ccncc2)CC1 [Compound 8],Inhibition (@ 100 μM),Table 4,1.59 (@ 100 μM)
O=C(c1cccc2cnccc12)N1CCN[C@@H](Cc2ccccc2)C1 [IP-IV-15],Inhibition,[1],70
O=C(Nc1cccc2cnccc12)OC1CCN(Cc2ccccc2)CC1 [IP-IV-115],% Inhibition,Table 5,50%
CC(C)[C@H]1CN(C(=O)c2cccc3cnccc23)CCN1 [IP-IV-103],Inhibition,[1],81
CCOC(=O)C1CCN(CC(=O)Nc2ccncc2)CC1 [IP-IV-39],% Inhibition (@ 100 μM),Table 5,−1.46 (@ 100 μM) %
O=C(Nc1ccncc1)N1CCN[C@@H](COCc2ccccc2)C1 [Compound 12a],Inhibition (@ 100 μM),Table 4,9.58
c1ccc([C@H]2CN(c3cccc4cnccc34)CCN2)cc1 [IP-IV-67],% Inhibition,[2],67%
same,pIC50,"Table 1, read-out: IC50",5.46
c1ccc(COC[C@H]2CN(c3ccnc4ccccc34)CCN2)cc1 [IP-IV-49],inhibitory activity / disruption of Rho-kinase activity (in words),,potent disrupters of active Rho-kinase
same,% Inhibition,[2],85%
O=C1CN(Cc2ccccc2)C(=O)[C@H](Cc2ccccc2)N1 [Compound 3e],% Inhibition (@ 100 μM),Table 2,0.75%
same,% Inhibition,[3],61%
O=C(Nc1ccncc1)OC1CCNCC1 [Compound 16b],inhibitory activity / disruption of Rho-kinase activity (in words),,potent disrupters of active Rho-kinase
same,pIC50,[4],5.12
O=C(Nc1cccc2cnccc12)NC1CCCCCC1 [IP-IV-129],% Inhibition,Table 5,50%
O=C1CN(Cc2ccncc2)C(=O)[C@H](CO)N1 [Compound 1d],% Inhibition (@ 100 μM),Table 2,1.73%
same,% Inhibition,[3],45%
CSCC[C@@H]1NC(=O)CN(Cc2cccc3ccccc23)C1=O [Compound 5b],% Inhibition (@ 100 μM),Table 2,−1.48%
same,% Inhibition,[3],93%
O=C(Nc1ccncc1)OC1CCN(Cc2ccccc2)CC1 [Compound 14b],pIC50,"Table 4, read-out: IC50",4.25
O=C1CN(Cc2cccc3ccccc23)C(=O)[C@H](Cc2ccccc2)N1 [Compound 5e],% Inhibition (@ 100 μM),Table 2,−1.87%
same,% Inhibition,[3],71%
O=C(CN1CCCN(Cc2ccccc2)CC1)Nc1ccncc1 [IP-IV-73],% Inhibition (@ 100 μM),Table 5,13.31 (@ 100 μM) %
CC(C)(C)OC(=O)N1CCN(c2cccc3cnccc23)C[C@@H]1Cc1ccccc1 [IP-IV-41],inhibitory activity / disruption of Rho-kinase activity (in words),,potent disrupters of active Rho-kinase
same,% Inhibition (@ 100 μM),Table 1,9.71%
same,% Inhibition,[2],83%
OC[C@H]1CN(Cc2ccncc2)CCN1 [Compound 2d],% Inhibition (@ 100 μM),Table 2,3.73%
same,% Inhibition,[3],20%
CSCC[C@H]1CN(Cc2ccccc2)CCN1 [Compound 4b],% Inhibition (@ 100 μM),Table 2,0.53%
same,% Inhibition,[3],60%
O=C(Nc1ccncc1)NC1CCN(Cc2ccccc2)CC1 [Compound 14a],pIC50,"Table 4, read-out: IC50",4.05
O=C(Nc1cccc2cnccc12)N1CCCN(Cc2ccccc2)CC1 [IP-IV-105],% Inhibition (@ 100 μM),Table 5,−0.85 (@ 100 μM) %
CSCC[C@@H]1NC(=O)CN(Cc2ccncc2)C1=O [Compound 1b],% Inhibition (@ 100 μM),Table 2,1.96%
same,% Inhibition,[3],25%
CC(C)[C@H]1CN(C(=O)c2cccc3cnccc23)CCN1C(=O)OC(C)(C)C [IP-IV-89],Inhibition,[1],82
c1ccc(C[C@H]2CN(c3ccnc4ccccc34)CCN2)cc1 [IP-IV-47],% Inhibition,[2],43%
CC(C)(C)OC(=O)N1CCN(c2ccnc3ccccc23)C[C@@H]1Cc1ccccc1 [IP-IV-33],% Inhibition,[2],47%
